In patent US20220265694A1, “COMPOSITIONS AND METHODS FOR TREATING AN INFECTION” (CMPD LICENSING, LLC, priority 2016, published 2022):

Tests used:
Enterococcus faecalis = assay: Expected efficacy of antibiotic agents; conditions: expected efficacy against Enterococcus faecalis; Gram: pos
[1] = tested on: Acinetobacter calcoaceticus; assay: Expected efficacy of antibiotic agents; conditions: expected efficacy against Acinetobacter calcoaceticus; Gram: neg
Serratia marcescens = assay: Expected efficacy of antibiotic agents; conditions: expected efficacy against Serratia marcescens; Gram: neg
Chlamydia pneumoniae = assay: Expected efficacy of antibiotic agents; conditions: expected efficacy against Chlamydia pneumoniae; Gram: n/a
Clostridium perfringens = conditions: expected efficacy against Clostridium perfringens; Gram: anaer
Moraxella catarrhalis = assay: Expected efficacy of antibiotic agents; conditions: expected efficacy against Moraxella catarrhalis; Gram: neg
Corynebacterium jeikeium = assay: Expected efficacy of antibiotic agents; conditions: expected efficacy against Corynebacterium jeikeium; Gram: pos
Haemophilus influenzae = assay: Expected efficacy of antibiotic agents; conditions: expected efficacy against Haemophilus influenzae; Gram: neg
Providencia stuartii = assay: Expected efficacy of antibiotic agents; conditions: expected efficacy against Providencia stuartii; Gram: neg
Citrobacter diversus = assay: Expected efficacy of antibiotic agents; conditions: expected efficacy against Citrobacter diversus; Gram: neg
Proteus vulgaris = assay: Expected efficacy of antibiotic agents; conditions: expected efficacy against Proteus vulgaris; Gram: neg
Providencia rettgeri = assay: Expected efficacy of antibiotic agents; conditions: expected efficacy against Providencia rettgeri; Gram: neg
Rickettsiae = conditions: expected efficacy against Rickettsiae; Gram: neg
Klebsiella oxytoca = assay: Expected efficacy of antibiotic agents; conditions: expected efficacy against Klebsiella oxytoca; Gram: neg
[2] = tested on: Staphylococcus epidermidis; assay: Expected efficacy of antibiotic agents; conditions: expected efficacy against Staphylococcus epidermidis; Gram: pos
Neisseria meningitidis = assay: Expected efficacy of antibiotic agents; conditions: expected efficacy against Neisseria meningitidis; Gram: neg
Chlamydia trachomatis = assay: Expected efficacy of antibiotic agents; conditions: expected efficacy against Chlamydia trachomatis; Gram: n/a
Mycoplasma pneumoniae = assay: Expected efficacy of antibiotic agents; conditions: expected efficacy against Mycoplasma pneumoniae; Gram: n/a
Acinetobacter baumannii = assay: Expected efficacy of antibiotic agents; conditions: expected efficacy against Acinetobacter baumannii; Gram: neg
Streptococcus pneumoniae = assay: Expected efficacy of antibiotic agents; conditions: expected efficacy against Streptococcus pneumoniae; Gram: pos
[3] = tested on: Methicillin resistant staph aureus (MRSA); assay: Expected efficacy of antibiotic agents; conditions: expected efficacy against Methicillin resistant staph aureus (MRSA); Gram: pos
Clostridium difficile = assay: Expected efficacy of antibiotic agents; conditions: expected efficacy against Clostridium difficile; Gram: anaer
Klebsiella pneumoniae = assay: Expected efficacy of antibiotic agents; conditions: expected efficacy against Klebsiella pneumoniae; Gram: neg
Pseudomonas fluorescens = assay: Expected efficacy of antibiotic agents; conditions: expected efficacy against Pseudomonas fluorescens; Gram: neg
Proteus mirabilis = assay: Expected efficacy of antibiotic agents; conditions: expected efficacy against Proteus mirabilis; Gram: neg
Bartonella bacilliformis = assay: Expected efficacy of antibiotic agents; conditions: expected efficacy against Bartonella bacilliformis; Gram: neg
Morganella morganii = assay: Expected efficacy of antibiotic agents; conditions: expected efficacy against Morganella morganii; Gram: neg
Vibrio cholerae = assay: Expected efficacy of antibiotic agents; conditions: expected efficacy against Vibrio cholerae; Gram: neg
Enterococcus faecium = assay: Expected efficacy of antibiotic agents; conditions: expected efficacy against Enterococcus faecium; Gram: pos
Bacteroides fragilis = assay: Expected efficacy of antibiotic agents; conditions: expected efficacy against Bacteroides fragilis; Gram: anaer
[4] = tested on: Staphylococcus aureus (MSSA); assay: Expected efficacy of antibiotic agents; conditions: expected efficacy against Staphylococcus aureus (MSSA); Gram: pos
Enterobacter cloacae = assay: Expected efficacy of antibiotic agents; conditions: expected efficacy against Enterobacter cloacae; Gram: neg
Streptococcus pyogenes = assay: Expected efficacy of antibiotic agents; conditions: expected efficacy against Streptococcus pyogenes; Gram: pos
Citrobacter freundii = assay: Expected efficacy of antibiotic agents; conditions: expected efficacy against Citrobacter freundii; Gram: neg
Escherichia coli = assay: Expected efficacy of antibiotic agents; conditions: expected efficacy against Escherichia coli; Gram: neg
Enterobacter aerogenes = assay: Expected efficacy of antibiotic agents; conditions: expected efficacy against Enterobacter aerogenes; Gram: neg
Bordetella pertussis = assay: Expected efficacy of antibiotic agents; conditions: expected efficacy against Bordetella pertussis; Gram: neg
Chlamydia psittaci = conditions: expected efficacy against Chlamydia psittaci; Gram: n/a
[5] = tested on: Klebsiella (Calymmatobacterium); assay: Expected efficacy of antibiotic agents; conditions: expected efficacy against Klebsiella (Calymmatobacterium); Gram: neg
Francisella tularensis = conditions: expected efficacy against Francisella tularensis; Gram: neg
Pseudomonas aeruginosa = assay: Expected efficacy of antibiotic agents; conditions: expected efficacy against Pseudomonas aeruginosa; Gram: neg
Campylobacter jejuni = assay: Expected efficacy of antibiotic agents; conditions: expected efficacy against Campylobacter jejuni; Gram: neg
Acinetobacter lwoffii = assay: Expected efficacy of antibiotic agents; conditions: expected efficacy against Acinetobacter lwoffii; Gram: neg
Legionella pneumophila = conditions: expected efficacy against Legionella pneumophila; Gram: neg
Brucella species = conditions: expected efficacy against Brucella species; Gram: neg
Enterobacter sakazakii = assay: Expected efficacy of antibiotic agents; conditions: expected efficacy against Enterobacter sakazakii; Gram: neg
Streptococcus agalactiae = assay: Expected efficacy of antibiotic agents; conditions: expected efficacy against Streptococcus agalactiae; Gram: pos
Shigella dysenteriae = assay: Expected efficacy of antibiotic agents; conditions: expected efficacy against Shigella dysenteriae; Gram: neg
Haemophilus ducreyi = assay: Expected efficacy of antibiotic agents; conditions: expected efficacy against Haemophilus ducreyi; Gram: neg
Shigella boydii = assay: Expected efficacy of antibiotic agents; conditions: expected efficacy against Shigella boydii; Gram: neg
Neisseria gonorrhoeae = assay: Expected efficacy of antibiotic agents; conditions: expected efficacy against Neisseria gonorrhoeae; Gram: neg
Shigella flexneri = assay: Expected efficacy of antibiotic agents; conditions: expected efficacy against Shigella flexneri; Gram: neg
[6] = tested on: Corynebacterium urealyticum; assay: Expected efficacy of antibiotic agents; conditions: expected efficacy against Corynebacterium urealyticum; Gram: pos
Yersinia pestis = conditions: expected efficacy against Yersinia pestis; Gram: neg
Salmonella typhi = assay: Expected efficacy of antibiotic agents; conditions: expected efficacy against Salmonella typhi; Gram: neg
Shigella sonnei = assay: Expected efficacy of antibiotic agents; conditions: expected efficacy against Shigella sonnei; Gram: neg
Candida species = assay: Expected efficacy of antifungal agents; conditions: expected efficacy against Candida species

For `CC[C@H]1OC(=O)[C@H](C)[C@@H](O[C@H]2C[C@@](C)(OC)[C@@H](O)[C@H](C)O2)[C@H](C)[C@@H](O[C@@H]2O[C@H](C)C[C@H](N(C)C)[C@H]2O)[C@](C)(O)C[C@@H](C)CN(C)[C@H](C)[C@@H](O)[C@]1(C)O` [Azithromycin], the Efficacy (Enterococcus faecalis) was “no”, the Efficacy [1] was “no” and the Efficacy (Serratia marcescens) was “no”. The Efficacy (Chlamydia pneumoniae) was “yes”, the Efficacy (Clostridium perfringens) was “no” and the Efficacy (Moraxella catarrhalis) was “yes”. The Efficacy (Corynebacterium jeikeium) was “no”, the Efficacy (Haemophilus influenzae) was “yes” and the Efficacy (Providencia stuartii) was “no”. The Efficacy (Citrobacter diversus) was “no”, the Efficacy (Proteus vulgaris) was “no” and the Efficacy (Providencia rettgeri) was “no”. The Efficacy (Rickettsiae) was “yes”, the Efficacy (Klebsiella oxytoca) was “no” and the Efficacy [2] was “yes”. The Efficacy (Neisseria meningitidis) was “yes”, the Efficacy (Chlamydia trachomatis) was “yes” and the Efficacy (Mycoplasma pneumoniae) was “yes”. For the same compound, the Efficacy (Acinetobacter baumannii) was “no”, the Efficacy (Streptococcus pneumoniae) was “yes” and the Efficacy [3] was “no”. The Efficacy (Clostridium difficile) was “no”, the Efficacy (Klebsiella pneumoniae) was “no” and the Efficacy (Pseudomonas fluorescens) was “no”. For the same compound, the Efficacy (Proteus mirabilis) was “no”, the Efficacy (Bartonella bacilliformis) was “yes” and the Efficacy (Morganella morganii) was “no”. The Efficacy (Vibrio cholerae) was “yes”, the Efficacy (Enterococcus faecium) was “no” and the Efficacy (Bacteroides fragilis) was “no”. For the same compound, the Efficacy [4] was “yes”, the Efficacy (Enterobacter cloacae) was “no” and the Efficacy (Streptococcus pyogenes) was “yes”. For the same compound, the Efficacy (Citrobacter freundii) was “no”, the Efficacy (Escherichia coli) was “no” and the Efficacy (Enterobacter aerogenes) was “no”. For the same compound, the Efficacy (Bordetella pertussis) was “yes”, the Efficacy (Chlamydia psittaci) was “yes” and the Efficacy [5] was “no”. For the same compound, the Efficacy (Francisella tularensis) was “no”, the Efficacy (Pseudomonas aeruginosa) was “no” and the Efficacy (Campylobacter jejuni) was “yes”. For the same compound, the Efficacy (Acinetobacter lwoffii) was “no”, the Efficacy (Legionella pneumophila) was “yes” and the Efficacy (Brucella species) was “no”. For the same compound, the Efficacy (Enterobacter sakazakii) was “no” and the Efficacy (Streptococcus agalactiae) was “yes”.
`C/C(=C\C(=O)OCCCCCCCCC(=O)O)C[C@@H]1OC[C@H](C[C@@H]2O[C@H]2[C@@H](C)[C@H](C)O)[C@@H](O)[C@H]1O` [Bactroban] was tested, and the Efficacy [1] was “no”, the Efficacy (Shigella dysenteriae) was “no” and the Efficacy (Serratia marcescens) was “no”. The Efficacy (Clostridium perfringens) was “no”, the Efficacy (Haemophilus ducreyi) was “no” and the Efficacy (Moraxella catarrhalis) was “no”. For the same compound, the Efficacy (Shigella boydii) was “no”, the Efficacy (Corynebacterium jeikeium) was “no” and the Efficacy (Haemophilus influenzae) was “no”. For the same compound, the Efficacy (Providencia stuartii) was “no”, the Efficacy (Citrobacter diversus) was “no” and the Efficacy (Proteus vulgaris) was “no”. The Efficacy (Providencia rettgeri) was “no”, the Efficacy (Rickettsiae) was “no” and the Efficacy (Klebsiella oxytoca) was “no”. For the same compound, the Efficacy (Neisseria meningitidis) was “no”, the Efficacy (Acinetobacter baumannii) was “no” and the Efficacy [3] was “yes”. The Efficacy (Klebsiella pneumoniae) was “no”, the Efficacy (Pseudomonas fluorescens) was “no” and the Efficacy (Proteus mirabilis) was “no”. For the same compound, the Efficacy (Bartonella bacilliformis) was “no”, the Efficacy (Morganella morganii) was “no” and the Efficacy (Vibrio cholerae) was “no”. For the same compound, the Efficacy (Neisseria gonorrhoeae) was “no”, the Efficacy (Shigella flexneri) was “no” and the Efficacy [4] was “yes”. For the same compound, the Efficacy (Enterobacter cloacae) was “no”, the Efficacy [6] was “no” and the Efficacy (Streptococcus pyogenes) was “yes”. The Efficacy (Citrobacter freundii) was “no”, the Efficacy (Escherichia coli) was “no” and the Efficacy (Enterobacter aerogenes) was “no”. For the same compound, the Efficacy (Yersinia pestis) was “no”, the Efficacy (Bordetella pertussis) was “no” and the Efficacy (Salmonella typhi) was “no”. The Efficacy [5] was “no”, the Efficacy (Francisella tularensis) was “no” and the Efficacy (Shigella sonnei) was “no”. For the same compound, the Efficacy (Pseudomonas aeruginosa) was “no”, the Efficacy (Campylobacter jejuni) was “no” and the Efficacy (Acinetobacter lwoffii) was “no”. For the same compound, the Efficacy (Legionella pneumophila) was “no”, the Efficacy (Brucella species) was “no” and the Efficacy (Enterobacter sakazakii) was “no”.
With `C[C@@H]1[C@H](O)[C@@H](C)/C=C/C=C/CC/C=C/C=C/C=C/C=C/C(O[C@H]2O[C@H](C)[C@@H](O)[C@H](N)[C@@H]2O)CC2O[C@](O)(CC(O)C(O)CCC(O)CC(O)CC(O)CC(=O)O[C@H]1C)CC(O)C2C(=O)O` (stereo partly drawn) [Nystatin] the Efficacy (Candida species) was “yes”.
